We go through 80 molecules from the METLIN SMRT retention time set (Domingo-Almenara et al. 2019).

The data set in a line: gradient 5% acetonitrile 3 min, to 50% in 2 min, to 85% in 15 min, held 3 min, 100 µL/min. The following applies: column: Zorbax Extend-C18 2.1 x 50 mm; eluents: water / acetonitrile, 0.1% formic acid. In short, it runs like this:
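Retention times of pure standards were taken from adduct peaks that were selected by computer and manually inspected. Over 3 months, mixtures of ~100 molecules were run by HPLC–quadrupole time-of-flight mass spectrometry in positive and negative ionization mode. The Zorbax Extend-C18 column (2.1 × 50 mm, 1.8 μm) ran at 100 μL/min in water and acetonitrile, each containing 0.1% formic acid, with 40 μL dead volume and 900 μL dwell volume.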
In turn, `COCCCNC(=O)Cn1nc(C)c2sc(-c3ccccc3)nc2c1=O` gave an RP-LC retention time of 706 s.

Molecule `Cc1nnc2n1CCC(N(C)C(=O)c1cc(C3CC3)[nH]n1)CC2` (stereo not given) showed an RP-LC retention time of 530 s.

On to `CNC(=O)NCC(c1ccc(F)cc1)c1c[nH]c2ccccc12` (stereo not given), for which the RP-LC retention time stood at 782 s.

`O=C(Cn1cc(-c2ccccc2)c2ncnc(N3CCOCC3)c21)NCC1CCCO1` (stereo not given) showed an RP-LC retention time of 644 s.

In turn, `CC(C)CCNC(=O)c1cn2ccccc2n1` showed an RP-LC retention time of 656 s.

Turning to `O=C(NCCc1ccccc1)N1CCC(n2c(-c3ccoc3)nc3cccnc32)C1` (stereo not given), the RP-LC retention time stood at 725 s.

Turning to `CC(C)CNC(=O)C1CCN(c2nccn3nc(-c4cccs4)cc23)CC1`, the RP-LC retention time came to 561 s.

`CCc1sc(NC(=O)C2CCCCC2)nc1-c1ccccc1` came in with an RP-LC retention time of 1200 s.

The molecule `O=C(Nc1ccccc1C(F)(F)F)N1CCC(N2CCN(Cc3ccc(F)cc3)C(=O)C2=O)CC1` came in with an RP-LC retention time of 752 s.

In turn, `O=C(C1CCN(S(=O)(=O)c2ccc(-c3noc(COc4ccccc4)n3)cc2)CC1)N1CCCC1` gave an RP-LC retention time of 961 s.

In the case of `CSc1ccc(CNC(=O)CSc2nccc(N3CCN(c4cc(C)ccc4C)CC3)n2)cc1`, the RP-LC retention time was determined as 921 s.

Take `COCCc1noc([C@@H]2CC(F)(F)CN2C(=O)c2ocnc2C)n1`: the RP-LC retention time was 689 s.

In the case of `Cc1ccc(Sc2nccnc2N2CCCC(C(=O)NC(C)C)C2)cc1` (stereo not given), the RP-LC retention time turned out to be 996 s.

In turn, `CCN(c1ccccc1)S(=O)(=O)c1cc2c3c(c1)CCC(=O)N3CCC2` had an RP-LC retention time of 910 s.

`CC(C)Cc1cc(-c2nn3c(-c4ccc(Br)cc4)nnc3s2)n[nH]1` returned an RP-LC retention time of 1150 s.

Molecule `CC(=O)Nc1c(C(=O)Nc2ccc(Cl)cc2)nnn1-c1ccccc1` returned an RP-LC retention time of 838 s.

`COCCOCc1nc(C2CCCN2S(=O)(=O)c2cccc3nsnc23)no1` (stereo not given) returned an RP-LC retention time of 759 s.

`CC(=O)Nc1ccc(C(=O)N2CCC3(CC2)N=C(c2ccccc2)NO3)cc1` returned an RP-LC retention time of 664 s.

On to `Cn1nccc1-c1cccc(-c2noc(-c3ccccc3)n2)c1`, for which the RP-LC retention time stood at 1120 s.

As for `COc1ccc(CNC(=O)C2CC(=O)N(c3n[nH]c4cccc(F)c34)C2)cc1OC` (stereo not given), the RP-LC retention time came out at 661 s.

On to `CCn1nc(N2CCCC(NS(=O)(=O)c3c(C)nn(C)c3C)C2)ccc1=O` (stereo not given), for which the RP-LC retention time was 642 s.

In turn, `COc1ccc(-c2nc3cnccn3c2Nc2ccc(OC)c(OC)c2)cc1` displayed an RP-LC retention time of 690 s.

`NC(=O)Cn1c2ccccc2c2ncn(Cc3nc(-c4ccccc4)no3)c(=O)c21`: the RP-LC retention time stood at 730 s.

In turn, `CCOC(=O)C1CCN(c2cc3c(cc2NC(=O)CCC2CCCC2)n(C)c(=O)c(=O)n3C)CC1` registered an RP-LC retention time of 999 s.

Regarding `CCC(C)NC(=O)C1CCN(C(=O)c2cc3ccsc3n2Cc2cccc(OC)c2)CC1` (stereo not given), the RP-LC retention time worked out at 633 s.

As for `CCn1nccc1-c1cccc(-c2noc(-c3ccc(F)cc3F)n2)c1`, the RP-LC retention time came out at 1270 s.

For the molecule `COc1ccccc1-c1noc(C2CCCN2C(=O)Nc2ccc(F)cc2F)n1` (stereo not given), the RP-LC retention time is 840 s.

The molecule `CC1CCCCN1c1nc(-c2ccc([N+](=O)[O-])cc2)nc2ccccc12` (stereo not given) showed an RP-LC retention time of 948 s.

For `Cc1cccc(OCCc2noc(C3CCNC3)n2)c1` (stereo not given), the RP-LC retention time was determined as 646 s.

Consider `CC(Oc1ccccc1F)C(=O)NCCn1nc(-n2cccn2)ccc1=O` (stereo not given), for which the RP-LC retention time was 660 s.

In turn, `CCC1(O)CCOC2(CCN(Cc3cccc(OC)n3)CC2)C1` (stereo not given) gave an RP-LC retention time of 602 s.

As to `COC(=O)c1c(NC(C)c2ccccc2)c2cccc(Cl)c2[nH]c1=O` (stereo not given), the RP-LC retention time came out at 864 s.

`CCOc1ccc(-c2nc(-c3cccc(-c4ccnn4CC)c3)no2)cc1`: the RP-LC retention time came out at 1300 s.

Consider `Cc1ccc(S(=O)(=O)Cc2noc(-c3ccc(Cl)cc3)n2)cc1`, for which the RP-LC retention time was determined as 1040 s.

In turn, `CCNc1ccccc1C(=O)O` showed an RP-LC retention time of 782 s.

As for `O=S(=O)(NCc1nc(-c2cccc(-c3csc(C4CC4)n3)c2)no1)c1ccccc1`, the RP-LC retention time turned out to be 1080 s.

Consider `O=C(C(=O)N1CCN(c2ccccc2Cl)CC1)c1c[nH]c2ccccc12`, for which the RP-LC retention time was 940 s.

For `CCc1cccc(NC(=O)Nc2cnn(-c3ncc(N4CCCC4)cn3)c2)c1`, the RP-LC retention time was determined as 749 s.

`Cc1ccc(-c2ccc(=O)n(Cc3noc(C(=O)NCCN4CCC(C)CC4)n3)n2)cc1` had an RP-LC retention time of 677 s.

With `CCCS(=O)(=O)N1CCC[C@H]1c1nc(-c2ccc(F)cc2)n[nH]1`, the RP-LC retention time was 740 s.

In turn, `O=C(c1cc(Cl)ccc1Cl)N1CCN(c2cc(-c3ccc(F)cc3)[nH]n2)CC1` came in with an RP-LC retention time of 897 s.

Turning to `COc1ccc(-c2ncc(NC(=O)C3CCC3)cn2)cc1`, the RP-LC retention time was 848 s.

The molecule `O=C(NCCC1CCN(C(=O)Nc2cc(F)cc(F)c2)CC1)C1CCC1` registered an RP-LC retention time of 810 s.

`O=C1COc2ccccc2N1Cc1nc(-c2cccc(C(F)(F)F)c2)no1` returned an RP-LC retention time of 1100 s.

`O=C1CN(C(=O)Cc2ccc(Cl)cc2)C2(CCCC2)CN1` displayed an RP-LC retention time of 761 s.

Turning to `Cc1c(Cl)cccc1S(=O)(=O)N1CCc2c(c(-c3nnc(-c4ccccc4)o3)nn2C)C1`, the RP-LC retention time turned out to be 1060 s.

Consider `Cc1sc(NC(=O)C2CCN(S(=O)(=O)c3cccs3)CC2)c(C(N)=O)c1C`, for which the RP-LC retention time was found to be 769 s.

Turning to `O=C(C1CCN(S(=O)(=O)c2ccc(-c3noc(-c4cccc(F)c4)n3)cc2)CC1)N1CCCC1`, the RP-LC retention time worked out at 1020 s.

As for `CCc1nc2cc(-c3noc(-c4ccccc4OC)n3)ccc2o1`, the RP-LC retention time was determined as 1080 s.

`Cc1oc2ncnc(N3CCCC(C(=O)N4CCN(C5CCCCC5)CC4)C3)c2c1C` (stereo not given): the RP-LC retention time turned out to be 1230 s.

Consider `Cc1ccc(OCC(=O)Nc2cc3c(cc2N2CCCC2)n(C)c(=O)c(=O)n3C)c(C)c1`, for which the RP-LC retention time is 1000 s.

Molecule `CCOc1ccc2cccc(NC(=O)Cc3cccs3)c2n1` yielded an RP-LC retention time of 1130 s.

As to `Oc1c(CN2CCN(c3ccccc3)CC2)cc(Br)c2cccnc12`, the RP-LC retention time is 830 s.

As for `COc1cc(CC(=O)N2CCN(c3cc(C)n4cnnc4n3)CC2)cc(OC)c1`, the RP-LC retention time was 607 s.

`Cc1nc(-c2noc(-c3cccc(F)c3)n2)cn1CC(=O)Nc1ccc(F)cc1`: the RP-LC retention time turned out to be 874 s.

In the case of `Cc1nc(C)c(C(=O)Nc2ccc(F)cc2F)s1`, the RP-LC retention time worked out at 755 s.

In the case of `Cc1cccc(NC(=O)NC2CCN(c3ccc(F)cc3)C2=O)c1` (stereo not given), the RP-LC retention time stood at 830 s.

The molecule `O=C1[C@H]2CN(Cc3ccccc3Cl)C[C@H]2C(=O)N1CCN1CCc2ccccc2C1` registered an RP-LC retention time of 661 s.

Turning to `COC(=O)c1ccccc1NC(=O)N(Cc1cc(=O)[nH]c2ccccc12)C(C)C`, the RP-LC retention time was 831 s.

The molecule `O=S(=O)(Cc1cccc(F)c1)N1CCC(C2CCNC2)CC1` (stereo not given) displayed an RP-LC retention time of 632 s.

`CCn1nc(CNC(=O)C2CCCCC2)c2ccccc21` came in with an RP-LC retention time of 828 s.

Molecule `Cn1cc2c(N3CCCC3)nc(C(=O)NCc3ccccc3C(F)(F)F)nc2n1` came in with an RP-LC retention time of 646 s.

For `CC1CCN(c2ncc3c(n2)CCC(C(=O)NCc2ccc(N4CCOCC4)cc2)C3)CC1` (stereo not given), the RP-LC retention time came out at 715 s.

`CCCN1C(=O)COc2cc(-c3noc(C(=O)NCCc4ccc(S(N)(=O)=O)cc4)n3)ccc21` came in with an RP-LC retention time of 771 s.

In turn, `COc1ccc2[nH]cc(CCNC(=O)CCc3nnc(C(=O)Nc4ccccc4)s3)c2c1` showed an RP-LC retention time of 803 s.

Molecule `CN1c2ccc(Cl)cc2C(=O)NC12CCN(C(=O)NCc1ccc(F)cc1)CC2` registered an RP-LC retention time of 785 s.

In the case of `CCn1cc(S(=O)(=O)N2C[C@@H](C(N)=O)[C@H](c3n[nH]c(C)n3)C2)cn1`, the RP-LC retention time amounted to 576 s.

For `CSc1cccc(NC(=O)N2CC=C(c3cn(C)c4ncccc34)CC2)c1`, the RP-LC retention time was 873 s.

For the molecule `Clc1ccc(-c2ccc(CNc3nn[nH]n3)o2)c(Cl)c1`, the RP-LC retention time worked out at 845 s.

`Cc1coc2cc3oc(=O)c(CC(=O)N[C@H](Cc4c[nH]c5ccccc45)C(=O)O)c(C)c3cc12` had an RP-LC retention time of 772 s.

`CN(C)c1ccc(NC(=O)Cn2nc3c(Oc4ccc(Cl)cc4)nccn3c2=O)cc1` registered an RP-LC retention time of 674 s.

In the case of `Cc1nnc(-c2coc(S(=O)(=O)N(C)C3CCCCC3)c2)o1`, the RP-LC retention time stood at 906 s.

For the molecule `Cc1ccc(-c2ccc(=O)n(Cc3nc(-c4cccs4)no3)n2)cc1C`, the RP-LC retention time turned out to be 1060 s.

As for `COc1ccc(C(O)Cn2ccn3nc(-c4ccc(C(C)C)cc4)cc3c2=O)cc1` (stereo not given), the RP-LC retention time is 1060 s.

In turn, `CCc1cccc(NC(=O)COc2cc(C)nc(N3CCN(c4ccccc4)CC3)n2)c1` returned an RP-LC retention time of 922 s.

`Cc1cc(C)nc(Nc2nc(C)c3cc4c(cc3n2)OCO4)n1` came in with an RP-LC retention time of 552 s.

In turn, `O=C(NCC1CCCO1)N1CCCn2nc(-c3cccs3)cc2C1` (stereo not given) came in with an RP-LC retention time of 663 s.

With `Cc1ccc(N2CC(c3nc(-c4ccccc4F)no3)CC2=O)cc1C` (stereo not given), the RP-LC retention time is 1020 s.

On to `CCOC(=O)NCCS(=O)(=O)N1CCN(c2ccc(OC)cc2)CC1`, for which the RP-LC retention time came to 695 s.

Molecule `Cc1nnc2ccc(-c3noc(Cc4cccc(F)c4)n3)cn12` gave an RP-LC retention time of 787 s.
